According to US20080187605A1, “PREVENTING PATHOLOGICAL NERVE CELL SUICIDE (NEUROAPOPTOSIS) IN IMMATURE NERVOUS SYSTEMS” (priority 2007, published 2008):
“Also recorded” adds a separate entry of the source. Like-named read-outs stand apart in the source and are kept apart here.

Assays:
[1] = tested on: caudate nucleus of infant mouse brain; experiment: Pilocarpine pretreatment against isoflurane- or midazolam-induced neuroapoptosis, activated caspase 3 IHC counts
Excerpt: Agents that suppress neuronal activity, including GABAergic anesthetic agents such as midazolam and isoflurane, trigger neuroapoptosis in the infant mouse brain. If suppression of neuronal activity is a sufficient cause of the neuroapoptosis response, it is possible that agents that increase neuronal activity, such as the muscarinic cholinergic agonist, pilocarpine, might counteract this response. […] Control littermates received saline instead of pilocarpine, then were exposed to the same midazolam or isoflurane treatments. The animals were euthanized 6 hrs after initiation of anesthetic drug exposure and the neuroapoptosis response in the caudate nucleus was evaluated by stereological counting of neuronal profiles showing positive IHC staining for activated caspase 3.

infant mouse brain [2] = conditions: 6 hrs
Experimental: (§1) The animals were euthanized 6 hrs after initiation of drug exposure and the neuroapoptosis response in 2 different brain regions (caudate nucleus, cerebral cortex) was evaluated by stereological counting of neuronal profiles showing positive immunohistochemical staining for activated caspase 3 (AC3). The mean number of AC3-positive profiles per mm^3 across these 2 brain regions was calculated for each treatment condition.

[3] = tested on: infant mouse brain (RSC/S and thalamus); conditions: infant mice; single dose of lithium carbonate before brain injury or up to 4 hours after injury
Excerpt: The method used herein for creating a consistent and reproducible head injury, in infant rats and mice, uses an electromagnetic impact device with a moving coil actuator, mounted on the arm of a stereotaxic holder. The actuator is positioned over the skull of an anesthetized animal, and has a blunt tip aimed at a specific location and angle on the skull. The actuator is driven electromagnetically, and impacts the skull at a computer-controlled speed, delivering a precise concussive force to a targeted zone on the skull.
As described in reports such as Bayly et al 2006, this type of concussive force can be applied to a single side of the head, creating nerve cell death by two different mechanisms. Brain cells directly beneath the skull at the site of impact die by an excitotoxic mechanism, which is confined to the local impact zone, and which leads to end-stage cell death within 4 hours. […]
In these tests, apoptotic neurons were detected by immunohistochemical staining of activated caspase-3 proteins. The quantitative counts were performed in RSC/S and thalamus tissues taken from both (i) the ipsilateral side of the brain, which was damaged, and (ii) the contralateral side of the brain, which was not damaged. […]

infant mouse brain [4] = conditions: for number of AC3-positive profiles, ketamine by itself: five day old mice, ketamine 40 mg/kg, caudate nucleus and cerebral cortex, vs saline
Experimental: as §1, with “Five day old infant mice were treated either with saline or ketamine (40 mg/kg), or lithium carbonate (6 Meq/kg), or ketamine (40 mg/kg) plus lithium (6 Meq/kg). The animals” for “The animals”

infant mouse brain [5] = conditions: 6 hrs; for number of AC3-positive profiles, ethanol by itself: ethanol 250 mg/g, mean across 5 brain regions, vs saline
Experimental: The mean number of AC3-positive profiles per mm^3 across all 5 brain regions was calculated for each treatment condition.

7 day old rat brain = conditions: xenon administered 4 hours ahead as preconditioning stimulus; cited from earlier work
[6] = tested on: caudate/putamen of infant mouse brain; experiment: Xenon and isoflurane neuroapoptosis, activated caspase-3 stereology
Experimental: Seven-day-old C57BL/6 mice were exposed to one of four conditions: air (control); 0.75% isoflurane; 70% xenon or 0.75% isoflurane+70% xenon (n≧9 per group) for 4 hours. All pups were euthanized 2 hours later for histopathological evaluation of the brains, using activated caspase-3 immunohistochemical staining to detect apoptotic neurons. Quantitative assessment of the number of apoptotic neurons in caudate/putamen under each condition was performed by unbiased stereology.
The results are depicted graphically in FIG. 7. In this graph, the number of apoptotic neurons under the control condition is given as 100% and the values for the experimental conditions are given as a percentage of the control.

ERK-2 = conditions: infant mice; within less than 30 minutes after ethanol
ERK-1 = conditions: infant mice; within less than 30 minutes after ethanol
AKT = conditions: infant mice; within 30 minutes after ethanol

Cc1ncc2n1-c1ccc(Cl)cc1C(c1ccccc1F)=NC2 [midazolam]
apoptotic response in the caudate nucleus, anesthetic alone ([1]; infant mice, isoflurane 0.75% for 4 hrs or midazolam 9 mg/kg): induced

O=C([O-])[O-].[Li+].[Li+] [lithium, lithium carbonate]
apoptosis rate, lithium plus propofol (infant mouse brain [2]; lithium 6 Meq/kg plus propofol 50 mg/kg): down to a level lower than the saline control level | number of AC3-positive profiles, lithium by itself (spontaneous neuroapoptosis) (infant mouse brain [2]; lithium carbonate 6 Meq/kg, propofol experiment, vs saline controls): marked reduction | apoptotic neurodegeneration after traumatic brain injury [3]: prevented almost all | protection against ketamine-induced neuroapoptosis (infant mouse brain [4]; lithium 6 Meq/kg): total protection; also recorded: potently prevent | apoptosis rate, lithium plus ketamine (infant mouse brain [4]; lithium 6 Meq/kg plus ketamine 40 mg/kg, 6 hrs): down to the same level as for lithium alone | number of AC3-positive profiles, lithium by itself (spontaneous neuroapoptosis) (infant mouse brain [4]; lithium carbonate 6 Meq/kg, 6 hrs, ketamine experiment, vs saline controls): marked reduction | number of AC3-positive profiles, lithium by itself (spontaneous neuroapoptosis) (infant mouse brain [5]; five day old mice, lithium carbonate 3 or 6 Meq/kg (equally strong), vs saline controls): marked reduction | apoptosis rate, lithium plus ethanol (infant mouse brain [5]; lithium 3 Meq/kg plus ethanol 250 mg/g): down to the same rate as in saline controls | apoptosis rate, lithium plus ethanol (infant mouse brain [5]; lithium 6 Meq/kg (higher dose) plus ethanol 250 mg/g): down to lower than the saline control level

CC[C@@H]1C(=O)OC[C@@H]1Cc1cncn1C [pilocarpine]
neuroapoptotic response to isoflurane in the caudate nucleus ([1]; P5 mice, pilocarpine 20 mg/kg 2 hrs before isoflurane 0.75% for 4 hrs, euthanized 6 hrs after start of anesthetic, vs saline pretreatment): significantly reduced; also recorded: markedly reduces | neuroapoptotic response to midazolam in the caudate nucleus ([1]; P5 mice, pilocarpine 20 mg/kg 2 hrs before midazolam 9 mg/kg, euthanized 6 hrs after start of anesthetic, vs saline pretreatment): significantly reduced; also recorded: markedly reduces | degeneration of caudate neurons caused by a GABA anesthetic drug ([1]; infant mice, pilocarpine given prior to GABA anesthetic drug): completely prevented, or greatly reduced | protective effect depending on timing of pilocarpine ([1]; pilocarpine given at the same time as the anesthetic (protective if 2 or more hrs prior)): not if given at the same time

[Xe] [xenon]
hypoxic and/or ischemic neurodegeneration (7 day old rat brain): protect | apoptotic response of xenon together with isoflurane, relative to xenon alone ([6]; 0.75% isoflurane+70% xenon for 4 hours): only moderately higher | neurotoxic reaction of xenon plus isoflurane, greater than control ([6]; 0.75% isoflurane+70% xenon for 4 hours, control (air) given as 100%): about 350% | protection against isoflurane-induced neuroapoptosis ([6]; 70% xenon combined with 0.75% isoflurane): markedly reduces; also recorded: strongly protects; also recorded: markedly protects | degree of neuroapoptotic response, drug alone ([6]; 70% xenon or 0.75% isoflurane alone for 4 hours): relatively weak neuroapoptogenic potential; also recorded: mild degree; also recorded: mild neuroapoptotic response | neuroapoptosis in the caudate/putamen, drug alone compared to controls ([6]; seven-day-old mice, 70% xenon or 0.75% isoflurane for 4 hours, euthanized 2 hours later, vs air): significant increase

CNC1(c2ccccc2Cl)CCCCC1=O (stereo not shown) [ketamine]
number of AC3-positive profiles, ketamine by itself (infant mouse brain [4]; 6 hrs): severe and pathological neuroapoptosis | number of AC3-positive profiles, ketamine by itself (infant mouse brain [4]; 6 hrs, listed as Ketamine): marked increase

CCO [ethanol]
number of AC3-positive profiles, ethanol by itself (infant mouse brain [5]; five day old mice): strong neuroapoptotic response | number of AC3-positive profiles, ethanol by itself (infant mouse brain [5]; five day old mice, listed as Ethanol): marked increase | activated isoform of ERK-2 (ERK-2): rapid decrease | activated isoform of ERK-1 (ERK-1): rapid decrease | activated isoform of AKT (AKT): marked suppression

FC(F)OC(Cl)C(F)(F)F (stereo not shown) [isoflurane]
neuroapoptosis in the caudate/putamen, drug alone compared to controls ([6]; mouse, in vivo): significant increase
